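Where inhibition never reached the appropriate level, the endpoint shown equals the highest concentration tested. Otherwise, values were interpolated linearly from a five-concentration, 48-hour dose response in 96-well plates. GI50 marks 50% less growth.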 Activity calls are given as the source filed them. Cut-off read from the data, not from the text of the source: active = GI50 up to about 1.1 µM and inactive = higher.
Columns and labels:
Assay in all cases: NCI anticancer screen, dose series, 48 h
[1] = system: DU-145
[2] = system: T47D
[3] = system: COLO 205
[4] = system: RPMI-8226
[5] = system: SF-539
[6] = system: HCC 2998
[7] = system: MDA-MB-435
[8] = system: SK-OV-3
[9] = system: A498
[10] = system: NCI-H460
[11] = system: SF-295
[12] = system: LOX IMVI
[13] = system: BT-549
[14] = system: OVCAR-4
[15] = system: CCRF-CEM
[16] = system: MOLT-4
[17] = system: SK-MEL-5

Structure (SMILES) | GI50 [1] | GI50 [2] | GI50 [3] | GI50 [4] | GI50 [5] | GI50 [6] | GI50 [7] | GI50 [8] | GI50 [9] | GI50 [10] | GI50 [11] | GI50 [12] | GI50 [13] | GI50 [14] | GI50 [15] | GI50 [16] | GI50 [17]
Cc1c(C)c(S(=O)(=O)N(CCCCCCN)OCCCN)c(C)c2c1OC(C)(C)CC2 | 26.4 µM (inactive) | 12.1 µM (inactive) | 4.29 µM (inactive) | 4.39 µM (inactive) | > 24.1 µM (inactive) | 2.04 µM (inactive) | 5.37 µM (inactive) | 10.1 µM (inactive) | 16.1 µM (inactive) | 2.69 µM (inactive) | 7.5 µM (inactive) | 2.4 µM (inactive) | 13.3 µM (inactive) | 2.49 µM (inactive) | 2.31 µM (inactive) | 2.18 µM (inactive) | 10.6 µM (inactive)
O=C1C(Cl)C(c2cc3cc(Br)ccc3nc2Cl)N1c1ccc(Cl)cc1 (configuration not stated) | 6.95 µM (inactive) | 6.65 µM (inactive) | 4.89 µM (inactive) | 5.21 µM (inactive) | 4.33 µM (inactive) | 4.36 µM (inactive) | 5.82 µM (inactive) | 10.3 µM (inactive) | 16.5 µM (inactive) | 6.59 µM (inactive) | 9.68 µM (inactive) | 0.906 µM (active) | 4.4 µM (inactive) | 4.46 µM (inactive) | 3.08 µM (inactive) | 3.89 µM (inactive) | 3.21 µM (inactive)
O=C(Nc1ccc(Cl)cc1)c1cc(S(=O)(=O)Nc2n[nH]c(Nc3ccc4ccccc4c3)n2)c(SSc2cc(Cl)c(C(=O)Nc3ccc(Cl)cc3)cc2S(=O)(=O)Nc2n[nH]c(Nc3ccc4ccccc4c3)n2)cc1Cl | 24.4 µM (inactive) | 3.2 µM (inactive) | 18.4 µM (inactive) | 22 µM (inactive) | 23.6 µM (inactive) | 17.9 µM (inactive) | 30.3 µM (inactive) | 33.5 µM (inactive) | 23.6 µM (inactive) | 26.7 µM (inactive) | 20.5 µM (inactive) | 17.5 µM (inactive) | 24.4 µM (inactive) | 28 µM (inactive) | 20.5 µM (inactive) | 19.1 µM (inactive) | 21.3 µM (inactive)
Cc1ccccc1NC(=O)O/N=C(\Cl)C(C)C | 17.2 µM (inactive) | 3.79 µM (inactive) | 1.75 µM (inactive) | 1.86 µM (inactive) | 9.08 µM (inactive) | 17.3 µM (inactive) | 13.2 µM (inactive) | 18.7 µM (inactive) | 17.9 µM (inactive) | 17.8 µM (inactive) | 18.9 µM (inactive) | 1.55 µM (inactive) | 5.32 µM (inactive) | 8.45 µM (inactive) | 1.48 µM (inactive) | 2.74 µM (inactive) | 11 µM (inactive)
CN(N=O)C(=O)NNC(=O)N(C)N=O | > 100 µM (inactive) | 79.1 µM (inactive) | 50.1 µM (inactive) | 32.7 µM (inactive) | 49.1 µM (inactive) | > 100 µM (inactive) | > 100 µM (inactive) | > 100 µM (inactive) | > 100 µM (inactive) | 42.4 µM (inactive) | 94.6 µM (inactive) | 44.4 µM (inactive) | 91.8 µM (inactive) | > 100 µM (inactive) | 31.7 µM (inactive) | 35.2 µM (inactive) | 67.6 µM (inactive)
C=C(C(=O)OC)c1cc2ccccc2n1S(=O)(=O)c1ccccc1 | 2.69 µM (inactive) | 1.7 µM (inactive) | 1.95 µM (inactive) | 1.28 µM (inactive) | 1.62 µM (inactive) | 4 µM (inactive) | 2.55 µM (inactive) | 11.3 µM (inactive) | 2.15 µM (inactive) | 2.21 µM (inactive) | 7.66 µM (inactive) | 2.43 µM (inactive) | 1.73 µM (inactive) | 4.82 µM (inactive) | 1.24 µM (inactive) | 2.21 µM (inactive) | 2.14 µM (inactive)
O=C1N[C@H]2C(=O)c3c(Cl)sc(Cl)c3[C@H]2O1 | 11.2 µM (inactive) | 11.6 µM (inactive) | 6.52 µM (inactive) | 13.3 µM (inactive) | 5.85 µM (inactive) | 1.94 µM (inactive) | 4.81 µM (inactive) | 15.5 µM (inactive) | 24.1 µM (inactive) | 18.1 µM (inactive) | 16.9 µM (inactive) | 2.7 µM (inactive) | 23.3 µM (inactive) | 2.15 µM (inactive) | 0.774 µM (active) | 3.12 µM (inactive) | 18.1 µM (inactive)
COc1cc2c(c(OC)c1OC)C(=O)[C@@H]1[C@H]2N1C(=O)NCCCl | 66.8 µM (inactive) | 48.3 µM (inactive) | 27 µM (inactive) | 70 µM (inactive) | 72.4 µM (inactive) | > 100 µM (inactive) | 32.6 µM (inactive) | > 100 µM (inactive) | 70.1 µM (inactive) | 40.6 µM (inactive) | > 100 µM (inactive) | 39.3 µM (inactive) | 80.5 µM (inactive) | 52.4 µM (inactive) | 30.1 µM (inactive) | 50.7 µM (inactive) | 46.8 µM (inactive)
Cc1c(-c2ccc(O)cc2)n(CCCCCCNCCOC(=O)NCCCc2ccc(N(CCCl)CCCl)cc2)c2ccc(O)cc12 | 1.83 µM (inactive) | 0.0552 µM (active) | 2.64 µM (inactive) | 1.31 µM (inactive) | 1.64 µM (inactive) | 1.86 µM (inactive) | 1.69 µM (inactive) | 10.2 µM (inactive) | 14.9 µM (inactive) | 1.52 µM (inactive) | 2.21 µM (inactive) | 1.5 µM (inactive) | 12.4 µM (inactive) | 1.9 µM (inactive) | 1.67 µM (inactive) | 1.17 µM (inactive) | 1.96 µM (inactive)
COCN1C(N)=C(C(=O)OC(C)(C)C)C2=CC(=O)C=CC21C (configuration not stated) | 11.9 µM (inactive) | 2.59 µM (inactive) | 5.01 µM (inactive) | 20.4 µM (inactive) | 17.4 µM (inactive) | 22.6 µM (inactive) | 13.2 µM (inactive) | 34.6 µM (inactive) | 20.1 µM (inactive) | 18.4 µM (inactive) | 43.6 µM (inactive) | 13.6 µM (inactive) | 4.24 µM (inactive) | 13.6 µM (inactive) | 3.66 µM (inactive) | 3.7 µM (inactive) | 15.3 µM (inactive)
O=C(O)C1=C(C(=O)O)N(c2ccncc2)C(c2ccco2)=CC1c1ccccc1[N+](=O)[O-] (configuration not stated) | 12.1 µM (inactive) | 7.82 µM (inactive) | 14.2 µM (inactive) | 2.79 µM (inactive) | 2.11 µM (inactive) | 1.9 µM (inactive) | 13.5 µM (inactive) | 18 µM (inactive) | 11.8 µM (inactive) | 12.6 µM (inactive) | 12.2 µM (inactive) | 2.01 µM (inactive) | 13.2 µM (inactive) | 13 µM (inactive) | 2.69 µM (inactive) | 3.44 µM (inactive) | 5.82 µM (inactive)
CC(O)(C(=O)N(O)c1ccc(Cl)cc1)c1ccc(Cl)cc1 (configuration not stated) | 34.4 µM (inactive) | 31.6 µM (inactive) | 18.1 µM (inactive) | 11.2 µM (inactive) | 32.5 µM (inactive) | 13 µM (inactive) | 24.7 µM (inactive) | 33.1 µM (inactive) | 25.5 µM (inactive) | 34.2 µM (inactive) | 27.3 µM (inactive) | 24.4 µM (inactive) | 21.6 µM (inactive) | 37.9 µM (inactive) | 6.08 µM (inactive) | 12.5 µM (inactive) | 18.7 µM (inactive)
CC(C)N(C(C)C)S(=O)(=O)C[C@]12CC[C@H](CC13OCC(CS(=O)(=O)c1ccccc1)O3)C2(C)C (some centres not stated) | 74.6 µM (inactive) | 27.1 µM (inactive) | 17.6 µM (inactive) | 26.5 µM (inactive) | 44.8 µM (inactive) | 54.5 µM (inactive) | 47.1 µM (inactive) | 45.5 µM (inactive) | 56.6 µM (inactive) | 39.2 µM (inactive) | 28.4 µM (inactive) | 64.6 µM (inactive) | > 85.3 µM (inactive) | 40.8 µM (inactive) | 32.1 µM (inactive) | 6.98 µM (inactive) | 29.4 µM (inactive)
O=C1c2c(Br)sc(Br)c2[C@@H](NC(=O)C(F)(F)F)C1Br (some centres not stated) | 6.71 µM (inactive) | 4.11 µM (inactive) | 2.01 µM (inactive) | 2.33 µM (inactive) | 2.73 µM (inactive) | 3.1 µM (inactive) | 2.13 µM (inactive) | 18.7 µM (inactive) | 15.3 µM (inactive) | 11.7 µM (inactive) | 16.8 µM (inactive) | 1.57 µM (inactive) | 3.03 µM (inactive) | 2.31 µM (inactive) | 1.88 µM (inactive) | 2.2 µM (inactive) | 2.8 µM (inactive)
COc1ccc(-c2cc(=O)c3c(OC)c(OC)c(OC)cc3o2)cc1 | 25.5 µM (inactive) | 17.8 µM (inactive) | 22.1 µM (inactive) | 27 µM (inactive) | 81.8 µM (inactive) | 16.8 µM (inactive) | 32.2 µM (inactive) | 24.3 µM (inactive) | 19.8 µM (inactive) | 24 µM (inactive) | 24.5 µM (inactive) | 28.2 µM (inactive) | 31.7 µM (inactive) | 24.2 µM (inactive) | 14 µM (inactive) | 18 µM (inactive) | 13.2 µM (inactive)
COc1ccc2c(=O)c3ccoc3n(CC=C(C)C)c2c1 [ACROPHYLLINE] | 34 µM (inactive) | 36.1 µM (inactive) | > 85.3 µM (inactive) | 22.4 µM (inactive) | 97.1 µM (inactive) | > 91.4 µM (inactive) | 75.9 µM (inactive) | 44.7 µM (inactive) | > 63.2 µM (inactive) | 50.2 µM (inactive) | 57.9 µM (inactive) | 42.3 µM (inactive) | 35.4 µM (inactive) | 44.7 µM (inactive) | 39.4 µM (inactive) | 25.2 µM (inactive) | 32 µM (inactive)

From ChEMBL document CHEMBL1201862, “PubChem BioAssay data set” (2004)
